ChEMBL document CHEMBL3217407, “Adamantane substituted aminocyclitols as pharmacological chaperones for Gaucher disease” (Medchemcomm, 2013)
Active and inactive are the calls of the source. The calls are words filed in the database; no cut-off is given here.

What was measured:
[1] = molecular target: T1, Lysosomal acid glucosylceramidase (Homo sapiens) (UniProt P04062); settings: 50 uM
T1 sequence (whole entry): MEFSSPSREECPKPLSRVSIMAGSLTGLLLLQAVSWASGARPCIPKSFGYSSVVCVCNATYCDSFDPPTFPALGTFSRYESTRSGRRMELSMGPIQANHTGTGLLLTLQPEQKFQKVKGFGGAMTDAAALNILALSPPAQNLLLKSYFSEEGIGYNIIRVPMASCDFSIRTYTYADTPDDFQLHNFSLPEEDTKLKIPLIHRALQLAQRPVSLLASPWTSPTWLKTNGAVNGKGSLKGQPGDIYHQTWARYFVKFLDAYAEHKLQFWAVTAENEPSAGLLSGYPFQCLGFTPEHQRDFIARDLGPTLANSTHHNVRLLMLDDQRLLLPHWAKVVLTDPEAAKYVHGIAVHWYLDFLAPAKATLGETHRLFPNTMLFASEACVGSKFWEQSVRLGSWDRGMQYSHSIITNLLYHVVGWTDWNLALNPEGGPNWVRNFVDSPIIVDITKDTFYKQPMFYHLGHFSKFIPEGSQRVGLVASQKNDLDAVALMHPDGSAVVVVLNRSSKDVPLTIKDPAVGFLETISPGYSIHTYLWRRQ
Description: Inhibition of imiglucerase in human fibroblasts using 4-methylumbelliferyl-beta-D-glucopyranoside as substrate at 50 uM after 24 hrs

Saccharomyces cerevisiae = assay: Inhibition of yeast alpha-glucosidase at 200 uM
[2] = molecular target: T2, Beta-galactosidase (Bos taurus) (UniProt Q58D55); assay: Inhibition of bovine liver beta-galactosidase at 200 uM
T2 sequence (whole entry): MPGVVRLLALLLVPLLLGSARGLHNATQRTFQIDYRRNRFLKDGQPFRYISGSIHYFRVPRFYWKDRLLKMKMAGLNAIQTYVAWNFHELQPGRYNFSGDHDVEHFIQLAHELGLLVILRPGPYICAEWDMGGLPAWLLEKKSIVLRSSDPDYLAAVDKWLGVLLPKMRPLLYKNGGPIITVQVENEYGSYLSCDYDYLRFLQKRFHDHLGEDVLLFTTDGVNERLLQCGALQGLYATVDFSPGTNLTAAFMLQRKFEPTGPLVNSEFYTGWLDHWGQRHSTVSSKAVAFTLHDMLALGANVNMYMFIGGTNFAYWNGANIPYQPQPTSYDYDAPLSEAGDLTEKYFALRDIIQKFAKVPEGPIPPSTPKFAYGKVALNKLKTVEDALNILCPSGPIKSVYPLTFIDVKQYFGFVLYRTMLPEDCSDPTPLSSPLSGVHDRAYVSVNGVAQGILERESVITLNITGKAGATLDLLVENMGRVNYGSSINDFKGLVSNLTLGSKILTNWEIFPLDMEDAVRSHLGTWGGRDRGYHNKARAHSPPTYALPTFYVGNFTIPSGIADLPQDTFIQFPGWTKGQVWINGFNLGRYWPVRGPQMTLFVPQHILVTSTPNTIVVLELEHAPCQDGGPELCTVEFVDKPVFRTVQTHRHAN

[3] = molecular target: T1, Lysosomal acid glucosylceramidase (Homo sapiens); assay: Ratio of IC50 for human recombinant imiglucerase at pH 5.2 to IC50 for human recombinant imiglucerase at pH 7
[4] = molecular target: T3, Lysosomal acid glucosylceramidase (Homo sapiens, UniProt P04062); assay: Inhibition of human recombinant imiglucerase using 4-methylumbelliferyl-beta-D-glucopyranoside as substrate preincubated for 30 mins at pH 7 before substrate addition measured after 10 mins
T3 sequence (P04062 whole entry): T1 sequence (whole entry)

[5] = molecular target: T3, Lysosomal acid glucosylceramidase; assay: Competitive inhibition of human recombinant imiglucerase using 4-methylumbelliferyl-beta-D-glucopyranoside as substrate preincubated for 30 mins at pH 5.2 before substrate addition measured after 10 mins by Lineweaver-Burk or Dixon plot analysis
[6] = Cytotoxicity against human fibroblasts up to 300 uM after 24 hrs by MTT assay; type: cell-based; settings: fibroblast
[7] = molecular target: Alpha-galactosidase (Coffea arabica) (UniProt Q42656); assay: Inhibition of coffee beans alpha-galactosidase at 200 uM
Chain of Alpha-galactosidase (Coffea arabica) (Q42656 16-378 limits assumed): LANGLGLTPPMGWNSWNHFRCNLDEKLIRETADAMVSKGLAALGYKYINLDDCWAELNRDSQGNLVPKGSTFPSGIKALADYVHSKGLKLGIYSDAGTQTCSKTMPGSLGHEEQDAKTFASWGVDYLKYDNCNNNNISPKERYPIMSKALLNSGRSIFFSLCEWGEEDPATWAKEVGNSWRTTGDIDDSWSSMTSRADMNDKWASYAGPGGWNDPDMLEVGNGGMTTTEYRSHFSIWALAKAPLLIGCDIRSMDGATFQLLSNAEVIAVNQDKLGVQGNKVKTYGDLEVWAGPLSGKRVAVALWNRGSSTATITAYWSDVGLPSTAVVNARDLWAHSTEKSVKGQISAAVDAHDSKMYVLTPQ

[8] = molecular target: T3, Lysosomal acid glucosylceramidase; assay: Inhibition of human recombinant imiglucerase using 4-methylumbelliferyl-beta-D-glucopyranoside as substrate preincubated for 30 mins at pH 5.2 before substrate addition measured after 10 mins
[9] = molecular target: T1, Lysosomal acid glucosylceramidase (Homo sapiens); assay: Inhibition of imiglucerase in human fibroblasts using 4-methylumbelliferyl-beta-D-glucopyranoside as substrate at 200 uM after 24 hrs
[10] = molecular target: T3, Lysosomal acid glucosylceramidase; assay: Competitive inhibition of human recombinant imiglucerase using 4-methylumbelliferyl-beta-D-glucopyranoside as substrate preincubated for 30 mins at pH 7 before substrate addition measured after 10 mins by Lineweaver-Burk or Dixon plot analysis

SMILES	inhibition [1] [%]	inhibition (Saccharomyces cerevisiae)	inhibition [2]	Ratio IC50 [3]	IC50 [4] [µM]	Ki [5] [µM]	Activity [6]	inhibition [7]	IC50 [8] [µM]	inhibition [9] [%]	Ki [10] [µM]
CCCCCCCCCN[C@@H]1[C@H](O)[C@H](O)[C@@H](O)[C@H](O)[C@H]1O	95										
CCCCCCCCCN[C@H]1[C@H](O)[C@@H](O)[C@H](O)[C@@H](O)[C@@H]1O	29										
O=C(CCCN[C@H]1[C@H](O)[C@@H](O)[C@H](O)[C@@H](O)[C@@H]1O)NC12CC3CC(CC(C3)C1)C2		inactive	inactive	4	58	183	Non-toxic	inactive	257	0	45
O=C(CCCN[C@@H]1[C@H](O)[C@H](O)[C@@H](O)[C@H](O)[C@H]1O)NC12CC3CC(CC(C3)C1)C2		inactive	24%	12	0.37	2.9	Non-toxic	inactive	5.4	1	0.25
